Measured values: ChEMBL document CHEMBL5104230, “Preparation, biological evaluation and QSAR analysis of urea substituted 2,4-diamino-pyrimidine anti-malarials” (RSC Med Chem, 2022)
≈ marks a conversion by molar mass, not a printed value.

Key:
Plasmodium falciparum = experiment: Antimalarial activity against chloroquine sensitive Plasmodium falciparum 3D7 infected in human RBC assessed as parasite growth inhibition incubated for 72 hrs by SYBR Green dye based fluorescence assay; format: functional, organism-based; conditions: 3D7, Erythrocyte
HepG2 = experiment: Cytotoxicity against human HepG2 cells assessed as cell growth inhibition incubated for 72 hrs by resazurin dye based fluorescence assay; format: functional; conditions: HepG2, 72 h
[1] = Metabolic stability in CD1 mouse liver microsome assessed as intrinsic clearance at 0.5 uM incubated upto 30 mins by UPLC-MS/MS analysis; format: ADME; conditions: microsomes, 0.5 h
[2] = target: Serine/threonine-protein kinase pim-1 (Homo sapiens) (UniProt P11309); experiment: Inhibition of human PIM1 at 1 uM incubated for 30 mins in presence of [gamma-33P]ATP by kinase selectivity assay
[3] = Aqueous solubility of compound in PBS buffer at pH 7.4 by HPLC-UV analysis; format: physicochemical
[4] = target: Receptor tyrosine-protein kinase erbB-4 (Homo sapiens) (UniProt Q15303); experiment: Inhibition of human HER4 at 1 uM incubated for 30 mins in presence of [gamma-33P]ATP by kinase selectivity assay
[5] = target: T1, Aurora kinase A (Homo sapiens) (UniProt O14965); experiment: Inhibition of human AURA at 1 uM incubated for 30 mins in presence of [gamma-33P]ATP by kinase selectivity assay
T1 sequence (whole entry): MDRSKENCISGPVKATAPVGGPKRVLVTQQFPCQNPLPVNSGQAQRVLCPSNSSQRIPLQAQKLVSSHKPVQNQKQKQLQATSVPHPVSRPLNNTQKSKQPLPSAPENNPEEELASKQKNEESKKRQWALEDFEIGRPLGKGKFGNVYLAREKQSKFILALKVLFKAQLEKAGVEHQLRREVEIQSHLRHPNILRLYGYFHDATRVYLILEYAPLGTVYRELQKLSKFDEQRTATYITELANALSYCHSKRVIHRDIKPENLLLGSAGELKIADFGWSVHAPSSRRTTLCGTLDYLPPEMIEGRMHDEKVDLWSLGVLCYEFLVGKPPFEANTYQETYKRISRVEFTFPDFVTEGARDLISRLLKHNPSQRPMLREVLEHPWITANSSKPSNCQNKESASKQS

[6] = target: T2, Mitogen-activated protein kinase kinase kinase 7 (Homo sapiens) (UniProt O43318); experiment: Inhibition of human TAK1 at 1 uM incubated for 30 mins in presence of [gamma-33P]ATP by kinase selectivity assay
T2 sequence (whole entry): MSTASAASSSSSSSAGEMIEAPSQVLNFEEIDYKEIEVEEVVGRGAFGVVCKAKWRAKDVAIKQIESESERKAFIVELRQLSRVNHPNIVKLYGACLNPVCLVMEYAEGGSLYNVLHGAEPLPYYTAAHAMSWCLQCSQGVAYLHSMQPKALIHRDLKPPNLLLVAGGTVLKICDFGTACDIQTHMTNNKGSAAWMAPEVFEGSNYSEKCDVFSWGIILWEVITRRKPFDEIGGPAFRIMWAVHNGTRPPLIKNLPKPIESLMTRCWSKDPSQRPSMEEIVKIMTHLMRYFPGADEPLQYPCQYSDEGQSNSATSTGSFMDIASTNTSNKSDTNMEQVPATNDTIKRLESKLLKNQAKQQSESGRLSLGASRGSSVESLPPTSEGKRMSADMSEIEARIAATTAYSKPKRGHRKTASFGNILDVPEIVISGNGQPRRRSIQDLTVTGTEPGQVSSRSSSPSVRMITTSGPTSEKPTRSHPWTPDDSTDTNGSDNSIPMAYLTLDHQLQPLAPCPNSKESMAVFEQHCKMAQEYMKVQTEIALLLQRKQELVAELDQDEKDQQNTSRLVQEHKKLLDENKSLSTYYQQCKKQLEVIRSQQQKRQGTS

[7] = target: Mitogen-activated protein kinase 8 (Homo sapiens) (UniProt P45983); experiment: Inhibition of human JNK1 at 1 uM incubated for 30 mins in presence of [gamma-33P]ATP by kinase selectivity assay
[8] = target: Cyclin-dependent kinase 2 (Homo sapiens) (UniProt P24941); experiment: Inhibition of human CDK2 at 1 uM incubated for 30 mins in presence of [gamma-33P]ATP by kinase selectivity assay
[9] = target: Mitogen-activated protein kinase kinase kinase 1 (Homo sapiens) (UniProt Q13233); experiment: Inhibition of human MEKK1 at 1 uM incubated for 30 mins in presence of [gamma-33P]ATP by kinase selectivity assay
[10] = target: Vascular endothelial growth factor receptor 1 (Homo sapiens) (UniProt P17948); experiment: Inhibition of human VEGFR1 at 1 uM incubated for 30 mins in presence of [gamma-33P]ATP by kinase selectivity assay
[11] = target: T3, Tyrosine-protein kinase JAK3 (Homo sapiens) (UniProt P52333); experiment: Inhibition of human JAK3 at 1 uM incubated for 30 mins in presence of [gamma-33P]ATP by kinase selectivity assay
T3 sequence (whole entry): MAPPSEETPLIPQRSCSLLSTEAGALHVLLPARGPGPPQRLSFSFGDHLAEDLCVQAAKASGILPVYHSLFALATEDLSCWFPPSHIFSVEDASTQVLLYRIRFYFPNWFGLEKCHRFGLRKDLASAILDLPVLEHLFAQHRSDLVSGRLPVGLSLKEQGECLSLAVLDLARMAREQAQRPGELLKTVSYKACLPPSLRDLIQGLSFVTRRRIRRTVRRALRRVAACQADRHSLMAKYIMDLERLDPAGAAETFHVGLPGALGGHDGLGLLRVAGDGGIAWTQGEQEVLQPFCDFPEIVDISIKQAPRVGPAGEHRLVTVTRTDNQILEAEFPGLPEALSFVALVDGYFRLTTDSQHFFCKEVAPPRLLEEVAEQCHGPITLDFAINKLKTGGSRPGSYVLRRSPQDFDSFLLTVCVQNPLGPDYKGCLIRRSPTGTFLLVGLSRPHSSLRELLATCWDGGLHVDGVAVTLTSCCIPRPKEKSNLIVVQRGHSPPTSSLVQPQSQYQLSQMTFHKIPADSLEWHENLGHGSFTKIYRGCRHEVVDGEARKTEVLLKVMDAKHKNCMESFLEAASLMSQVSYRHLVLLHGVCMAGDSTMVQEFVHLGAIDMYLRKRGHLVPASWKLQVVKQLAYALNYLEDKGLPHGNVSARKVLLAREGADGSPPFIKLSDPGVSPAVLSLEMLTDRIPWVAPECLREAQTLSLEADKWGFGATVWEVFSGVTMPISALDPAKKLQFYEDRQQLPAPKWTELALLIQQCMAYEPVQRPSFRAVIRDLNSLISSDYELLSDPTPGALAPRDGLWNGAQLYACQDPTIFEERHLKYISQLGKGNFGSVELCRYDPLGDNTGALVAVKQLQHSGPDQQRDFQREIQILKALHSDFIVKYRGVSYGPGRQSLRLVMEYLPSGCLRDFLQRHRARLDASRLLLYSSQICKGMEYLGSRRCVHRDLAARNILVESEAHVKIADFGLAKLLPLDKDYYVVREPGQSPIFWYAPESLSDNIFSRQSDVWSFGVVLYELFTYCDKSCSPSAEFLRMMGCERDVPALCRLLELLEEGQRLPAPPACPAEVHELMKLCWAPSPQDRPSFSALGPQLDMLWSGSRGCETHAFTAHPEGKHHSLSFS

[12] = target: Mitogen-activated protein kinase 3 (Homo sapiens) (UniProt P27361); experiment: Inhibition of human ERK1 at 1 uM incubated for 30 mins in presence of [gamma-33P]ATP by kinase selectivity assay
[13] = Metabolic stability in human liver microsome assessed as intrinsic clearance at 0.5 uM incubated upto 30 mins by UPLC-MS/MS analysis; format: ADME; conditions: microsomes, 0.5 h
[14] = Partition coefficient, logD of compound in octanol and phosphate buffer at pH 7.4 incubated for 6 hrs under shaking condition by HPLC-UV analysis; format: physicochemical

Mitogen-activated protein kinase 8 (Homo sapiens), sequence (P45983 whole entry): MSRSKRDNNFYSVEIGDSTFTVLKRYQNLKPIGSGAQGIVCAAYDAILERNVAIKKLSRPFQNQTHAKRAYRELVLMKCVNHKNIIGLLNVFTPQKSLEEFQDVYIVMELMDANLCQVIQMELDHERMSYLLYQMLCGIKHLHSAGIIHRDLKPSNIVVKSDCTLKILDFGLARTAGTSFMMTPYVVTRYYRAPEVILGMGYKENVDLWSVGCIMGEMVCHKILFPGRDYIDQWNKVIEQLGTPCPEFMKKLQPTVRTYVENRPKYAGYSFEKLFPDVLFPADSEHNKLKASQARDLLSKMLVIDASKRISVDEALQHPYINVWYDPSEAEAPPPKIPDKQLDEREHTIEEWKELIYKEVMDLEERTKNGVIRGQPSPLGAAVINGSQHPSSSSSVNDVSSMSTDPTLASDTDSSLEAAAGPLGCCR
Mitogen-activated protein kinase 3 (Homo sapiens), sequence (P27361 whole entry): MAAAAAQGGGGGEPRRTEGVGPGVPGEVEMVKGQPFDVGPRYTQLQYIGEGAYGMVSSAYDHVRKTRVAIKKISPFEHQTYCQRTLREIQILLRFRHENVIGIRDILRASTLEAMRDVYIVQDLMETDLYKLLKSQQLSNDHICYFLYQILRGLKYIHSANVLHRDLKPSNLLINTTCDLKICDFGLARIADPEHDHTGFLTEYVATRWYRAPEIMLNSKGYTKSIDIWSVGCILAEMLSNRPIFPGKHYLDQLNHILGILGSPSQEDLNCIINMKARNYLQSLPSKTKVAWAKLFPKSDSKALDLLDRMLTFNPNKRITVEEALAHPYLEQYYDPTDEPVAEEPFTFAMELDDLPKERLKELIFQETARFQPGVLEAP
Vascular endothelial growth factor receptor 1 (Homo sapiens), sequence (P17948 whole entry): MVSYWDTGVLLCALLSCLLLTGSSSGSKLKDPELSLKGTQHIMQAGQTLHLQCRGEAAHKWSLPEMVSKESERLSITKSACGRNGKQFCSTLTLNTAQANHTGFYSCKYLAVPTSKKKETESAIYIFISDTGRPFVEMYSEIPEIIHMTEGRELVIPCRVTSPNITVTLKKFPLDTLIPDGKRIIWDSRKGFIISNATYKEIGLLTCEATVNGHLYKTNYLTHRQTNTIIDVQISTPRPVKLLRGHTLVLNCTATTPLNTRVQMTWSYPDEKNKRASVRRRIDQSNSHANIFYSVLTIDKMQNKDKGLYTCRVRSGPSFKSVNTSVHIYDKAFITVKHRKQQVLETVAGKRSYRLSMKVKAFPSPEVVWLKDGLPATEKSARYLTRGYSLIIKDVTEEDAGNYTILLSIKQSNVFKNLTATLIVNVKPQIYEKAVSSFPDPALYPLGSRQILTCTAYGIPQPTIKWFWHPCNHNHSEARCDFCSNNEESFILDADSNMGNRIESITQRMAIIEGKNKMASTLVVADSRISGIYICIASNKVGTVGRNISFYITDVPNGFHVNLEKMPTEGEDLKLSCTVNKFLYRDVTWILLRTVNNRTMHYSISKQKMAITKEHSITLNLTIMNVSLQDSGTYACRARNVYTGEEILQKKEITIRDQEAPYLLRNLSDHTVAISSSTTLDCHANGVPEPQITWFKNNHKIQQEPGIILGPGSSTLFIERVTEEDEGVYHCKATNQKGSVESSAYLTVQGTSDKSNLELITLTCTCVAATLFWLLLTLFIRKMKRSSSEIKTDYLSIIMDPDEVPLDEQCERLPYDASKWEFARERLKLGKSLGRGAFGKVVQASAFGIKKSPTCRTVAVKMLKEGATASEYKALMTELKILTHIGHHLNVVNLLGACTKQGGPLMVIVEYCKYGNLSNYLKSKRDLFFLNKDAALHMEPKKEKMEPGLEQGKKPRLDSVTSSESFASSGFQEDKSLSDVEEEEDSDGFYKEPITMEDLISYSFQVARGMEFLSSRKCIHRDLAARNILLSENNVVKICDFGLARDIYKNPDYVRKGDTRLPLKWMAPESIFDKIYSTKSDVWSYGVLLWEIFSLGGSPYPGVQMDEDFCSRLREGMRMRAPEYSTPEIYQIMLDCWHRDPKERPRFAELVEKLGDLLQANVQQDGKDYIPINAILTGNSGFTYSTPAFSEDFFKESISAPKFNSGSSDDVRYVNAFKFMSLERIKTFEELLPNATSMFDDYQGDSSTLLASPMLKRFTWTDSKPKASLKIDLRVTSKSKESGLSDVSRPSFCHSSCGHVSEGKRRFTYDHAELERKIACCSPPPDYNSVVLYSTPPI
Receptor tyrosine-protein kinase erbB-4 (Homo sapiens), sequence (Q15303 whole entry): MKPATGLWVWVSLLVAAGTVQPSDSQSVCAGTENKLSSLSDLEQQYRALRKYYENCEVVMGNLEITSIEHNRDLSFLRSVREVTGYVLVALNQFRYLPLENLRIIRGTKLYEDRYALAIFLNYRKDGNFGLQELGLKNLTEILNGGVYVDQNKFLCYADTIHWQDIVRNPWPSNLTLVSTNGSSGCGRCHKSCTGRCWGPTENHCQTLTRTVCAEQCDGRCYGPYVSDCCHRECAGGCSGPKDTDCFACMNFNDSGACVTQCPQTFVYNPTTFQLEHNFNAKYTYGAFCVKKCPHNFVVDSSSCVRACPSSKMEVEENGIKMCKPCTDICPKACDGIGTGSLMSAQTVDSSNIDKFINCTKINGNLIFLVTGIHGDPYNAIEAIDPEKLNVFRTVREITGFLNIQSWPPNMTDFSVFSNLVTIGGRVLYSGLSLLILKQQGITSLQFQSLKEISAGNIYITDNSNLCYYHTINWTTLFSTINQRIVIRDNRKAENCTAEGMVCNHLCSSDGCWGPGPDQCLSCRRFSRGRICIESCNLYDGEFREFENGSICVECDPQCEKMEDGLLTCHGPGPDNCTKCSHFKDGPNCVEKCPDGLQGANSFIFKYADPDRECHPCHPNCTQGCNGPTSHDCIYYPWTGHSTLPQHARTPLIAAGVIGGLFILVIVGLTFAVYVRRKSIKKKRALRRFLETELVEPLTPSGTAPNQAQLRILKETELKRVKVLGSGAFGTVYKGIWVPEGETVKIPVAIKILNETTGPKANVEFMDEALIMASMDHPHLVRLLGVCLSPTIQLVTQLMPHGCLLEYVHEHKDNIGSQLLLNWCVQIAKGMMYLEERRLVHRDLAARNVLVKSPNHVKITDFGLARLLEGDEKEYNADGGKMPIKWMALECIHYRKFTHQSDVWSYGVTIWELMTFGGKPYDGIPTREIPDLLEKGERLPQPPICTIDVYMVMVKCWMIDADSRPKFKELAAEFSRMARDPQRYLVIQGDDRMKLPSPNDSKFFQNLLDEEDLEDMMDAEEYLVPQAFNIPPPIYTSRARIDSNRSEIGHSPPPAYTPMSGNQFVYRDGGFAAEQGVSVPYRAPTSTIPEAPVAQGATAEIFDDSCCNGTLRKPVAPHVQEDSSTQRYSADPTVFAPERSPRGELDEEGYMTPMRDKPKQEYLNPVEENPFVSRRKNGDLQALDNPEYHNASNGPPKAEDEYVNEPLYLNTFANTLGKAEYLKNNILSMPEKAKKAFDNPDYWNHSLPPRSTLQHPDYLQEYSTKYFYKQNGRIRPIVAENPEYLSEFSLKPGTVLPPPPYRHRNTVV
Serine/threonine-protein kinase pim-1 (Homo sapiens), sequence (P11309 whole entry, looked up): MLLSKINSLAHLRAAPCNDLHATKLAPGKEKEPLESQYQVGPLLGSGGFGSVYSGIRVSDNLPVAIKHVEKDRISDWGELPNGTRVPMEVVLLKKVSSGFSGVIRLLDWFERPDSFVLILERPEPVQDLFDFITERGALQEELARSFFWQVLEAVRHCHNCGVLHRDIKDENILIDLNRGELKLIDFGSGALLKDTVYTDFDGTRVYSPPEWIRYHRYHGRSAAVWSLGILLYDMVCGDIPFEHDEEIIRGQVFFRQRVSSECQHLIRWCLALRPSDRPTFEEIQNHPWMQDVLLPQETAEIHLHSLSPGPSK

Row | SMILES | IC50 (Plasmodium falciparum) [µM] | IC50 (HepG2) [µM] | also measured
1 | O=C(Nc1ccc(Nc2nccc(Nc3ccc4cn[nH]c4c3)n2)cc1)Nc1cccc(F)c1 | 1 | 6.6 | –
2 | O=C(Nc1ccccc1)Nc1cccc(Nc2nccc(Nc3ccc4nc[nH]c4c3)n2)c1 | 0.54 | 11 | –
3 | Cc1ccc(Nc2nccc(Nc3ccc4cn[nH]c4c3)n2)cc1NC(=O)Nc1ccccc1 | 1 | 8.9 | –
4 | Cc1ccc(NC(=O)Nc2cccc(Nc3nccc(Nc4ccc5cn[nH]c5c4)n3)c2)cc1 | 0.72 | 11 | –
5 | c1cc(Nc2ccc3cn[nH]c3c2)nc(Nc2ccc(Cn3cncn3)cc2)n1 | 7.2 | 18 | –
6 | O=C(Nc1ccccc1)Nc1cccc(Nc2nccc(Nc3ccc4[nH]ncc4c3)n2)c1 | 0.33 | 8.1 | –
7 | O=C(Nc1ccc(F)cc1)Nc1cccc(Nc2nccc(Nc3ccc4cn[nH]c4c3)n2)c1 | 0.4 | 12 | –
8 | c1cc(Nc2ccc3nc[nH]c3c2)nc(Nc2ccc(OCCN3CCOCC3)cc2)n1 | 1.2 | > 25 | –
9 | O=C(Nc1ccccc1)Nc1ccc(Nc2nccc(Nc3ccc4cn[nH]c4c3)n2)cc1 | 0.92 | 11 | –
10 | Cc1cccc(NC(=O)Nc2cccc(Nc3nccc(Nc4ccc5cn[nH]c5c4)n3)c2)c1 | 0.32 | 2.8 | –
11 | O=S(=O)(c1ccc(Nc2nccc(Nc3ccc4nc[nH]c4c3)n2)cc1)N1CCOCC1 | 7.1 | > 25 | –
12 | O=C(Nc1ccccc1)Nc1cccc(Nc2nccc(Nc3ccc4cn[nH]c4c3)n2)c1 | 0.47 | 8.2 | –
13 | O[C@@H](c1cc(C(F)(F)F)nc2c(C(F)(F)F)cccc12)[C@H]1CCCCN1 [(S,R)-MEFLOQUINE] | – | 11.5 | –
14 | Cc1c2ccc(Nc3ccnc(Nc4cccc(NC(=O)Nc5ccccc5)c4)n3)cc2nn1C | 0.17 | 2.4 | –
15 | O=C(Nc1ccccc1)Nc1cccc(Nc2ncc([N+](=O)[O-])c(Nc3ccc4cn[nH]c4c3)n2)c1 | 6.4 | > 25 | –
16 | O=C(Nc1ccccc1)Nc1cccc(Nc2ncc(Cl)c(Nc3ccc4cn[nH]c4c3)n2)c1 | 2.5 | 3.5 | –
17 | Nc1cnc(Nc2cccc(NC(=O)Nc3ccccc3)c2)nc1Nc1ccc2cn[nH]c2c1 | 2.9 | > 25 | –
18 | O=C(Nc1ccc(F)cc1)Nc1ccc(Nc2nccc(Nc3ccc4cn[nH]c4c3)n2)cc1 | 0.79 | 3.5 | –
19 | O=C(Nc1ccccc1)Nc1cccc(Nc2nccc(Nc3ccc4[nH]ccc4c3)n2)c1 | 0.093 | 5 | CLH [1]: 8.8 mL/min/g; inhibition [2]: 99.6%; solubility [3]: 0.33 µg/mL (≈ 0.758 µM); inhibition [4]: 32.2%; inhibition [5]: 21.7%; inhibition [6]: 26.6%; inhibition [7]: 68%; inhibition [8]: 71.4%; inhibition [9]: 45.9%; inhibition [10]: 1.8%; inhibition [11]: 56.7%; inhibition [12]: 84%; CLH [13]: 5 mL/min/g; logD at 6 h [14]: ≥ 4
20 | COc1ccc(NC(=O)Nc2ccccc2)cc1Nc1nccc(Nc2ccc3cn[nH]c3c2)n1 | 1.5 | 6.5 | –
21 | O=C1NC(Cc2ccc(Nc3nccc(Nc4ccc5cn[nH]c5c4)n3)cc2)CO1 (centres undefined) | 7.1 | 20 | –
22 | c1cc(Nc2ccc3cn[nH]c3c2)nc(Nc2ccc(OCCN3CCOCC3)cc2)n1 | 2.1 | 15 | –
23 | CN1CCN(S(=O)(=O)c2ccc(Nc3nccc(Nc4ccc5nc[nH]c5c4)n3)cc2)CC1 | 1.2 | > 25 | –
24 | Cc1cnc(Nc2cccc(NC(=O)Nc3ccccc3)c2)nc1Nc1ccc2cn[nH]c2c1 | 0.15 | 3.6 | –
25 | Cn1cc2ccc(Nc3ccnc(Nc4cccc(NC(=O)Nc5ccccc5)c4)n3)cc2n1 | 0.22 | 12 | CLH [1]: > 50 mL/min/g; inhibition [2]: 102%; solubility [3]: 0.11 µg/mL (≈ 0.244 µM); inhibition [4]: 67.7%; inhibition [5]: 22%; inhibition [6]: 35.8%; inhibition [7]: 68.8%; inhibition [8]: 78.7%; inhibition [9]: 52.4%; inhibition [10]: 4.1%; inhibition [11]: 51.4%; inhibition [12]: 65.6%; CLH [13]: 9.1 mL/min/g; logD at 6 h [14]: ≥ 4
26 | O=C(Nc1ccccc1)Nc1cc(Nc2nccc(Nc3ccc4cn[nH]c4c3)n2)ccc1O | 1.4 | 25 | –
